# Measured values reported in US7288671B2, “Interleukin-1 and tumor necrosis factor-α modulators, synthesis of said modulators and their enantiomers and methods of using said modulators” (Nereus Pharmaceuticals, Inc., priority 1999, dated 2007).
# Where two headings read alike, the source gives them in different places.
# Columns and labels:
# [1] = tested on: TNF-α synthesis of THP-1 cells; experiment: LPS-induced TNF-α production in PMA-differentiated THP-1 cells (FLISA); type: cell-based, human; settings: THP-1, LPS
# Procedure: (§1) The ability to inhibit TNF-α production was analyzed in THP-1 cells, a human acute monocytic leukemia cell line that is widely used to assess monocyte functions. In order to induce maturation, THP-1 cells were plated at 1×10^6 cells/ml and pretreated with 5 nM PMA for two days. Differentiated THP-1 cells were pretreated with various concentrations of NPI-1302a-3 or its analogs for 1 hour, followed by a 4 hour incubation with 1 μg of LPS (Sigma, St. Louse, Mo.). The P38 inhibitor (10 μM, SB 203580; Sigma, St. Louis, Mo.) was used as a positive control. Supernatants were collected and stored at −80° C. until assayed for TNF-α activity. A resazurin assay was performed for each analog to evaluate the effects on cell metabolism and viability.
# To detect the presence of human TNFα, fluorescent linked immunosorbent assay or FLISA was developed and optimized. 100 μl of beads (6 μm, Spherotech) coated with goat anit-mouse IgG (1 mg/ml, R and D Systems) were mixed with 4 μl of biotin-anti-hTNFα mouse IgG (0.1 mg/ml, R and D Systems) and 2 μl of FMAT Blue-streptavidin (0.1 mg/ml, Applied Biosystems). 50 μl of the mixtures was combined with 50 μl of the supernatant isolated from treated THP-1 cells and added to the black wall FLISA plates (Applied Biosystems) and incubated overnight. The plates were scanned at factory set PMT setting, and the values were plotted and analyzed by Applied Biosystems software.
# THP-1 cells = experiment: Resazurin (alamarBlue) cell viability assay in differentiated THP-1 cells; type: cell-based, human; settings: footnote marks: * mild, ** marked reduction in viability, in % (unit assumed)
# Procedure: as §1
# A preparation of the dye resazurin, commercially-available as alamarBlue™ (Biosource International Inc.; 820 Flynn Road, Camarillo, Calif.), was used for the cytotoxicity assays described herein. The assays and experiments described herein were conducted in substantially the same manner as described in the scientific literature, for example, in Magnani, E and Bettini, E., “Resazurin detection of energy metabolism changes in serum-starved PC12 cells and of neuroprotective agent effect,” Brain Res Protoc., Jul. 5, 2000(3):266-72 and in Nociari M. M., Shalev A., Benias P., and Russo C. J, “A novel one-step, highly sensitive fluorometric assay to evaluate cell-mediated cytotoxicity,” Immunol.Methods 213, 157-167 (1998), see also U.S. Pat. No. 5,501,959, entitled “Antibiotic and Cytotoxic Drug Susceptibility Assays using Resazurin and Poising Agents,” the entire specification of which is incorporated herein by reference.
# IL-6 synthesis = experiment: SAC-induced IL-6 synthesis, RAW 264.7 macrophage cells; type: cell-based, Murine
# Procedure: (§2) Murine macrophage cells RAW 264.7 (1×10^6/ml) were pretreated for 30-60 minutes with varying doses of the synthetic compound of Formula (I), the synthetic compound of formula (I) and a panel of analogs (diluted in 0.5% DMSO) prior to stimulation with various agents such as lipopolysaccharide (LPS) or a gram positive agent like heat-killed Staph aureus (SAC). Supernatants collected over a 72-hour period will be assayed for the levels of TNF-α, IL-1, IL-6, IL-10, IL-12 and other cytokines either by elisa or bioassay. Additional studies to evaluate the effects of the synthetic compound of Formulae (I), (II), (IIA) and (IIB) on cytokine signaling pathways such as, for example, Caspase-activity (Nr-1, Nr.3), transcription factors such as NF-kB, MAP-kinase activity (p38, ERK and JNK) will also be performed.
# IL-1 production = settings: approximately 0.1 to approximately 1.0 microgram/ml for 48 hours; cited from earlier work
# cirrhosis = settings: mice; cited from earlier work
# IL-6 = settings: same conditions; cited from earlier work
# IFN-γ (interferon-gamma) = settings: same conditions; cited from earlier work
# silicosis = settings: mice; cited from earlier work
# mice = settings: cited from earlier work
# rat = settings: cited from earlier work
# TNF-α production = settings: approximately 0.1 to approximately 1.0 microgram/ml for 48 hours; cited from earlier work
# IL-1 synthesis = experiment: Inhibition of SAC-induced IL-1 synthesis, RAW 264.7 macrophage cells; type: cell-based, Murine; settings: for IL-1α: Table 6, SAC-induced, SAC alone 650, unstimulated 0
# Procedure: as §2
# TNF-α synthesis [2] = experiment: Inhibition of SAC-induced TNF-α synthesis, RAW 264.7 macrophage cells; type: cell-based, Murine; settings: SAC alone 375, unstimulated 5
# Procedure: as §2
# TNF-α synthesis [3] = experiment: Inhibition of LPS-induced TNF-α synthesis, RAW 264.7 macrophage cells; type: cell-based, Murine; settings: for TNF-α: Table 7, LPS alone 88
# Procedure: as §2
# LPS/D-Gal administration = experiment: Mortality after LPS/D-Gal administration; type: in vivo; settings: i.p., TTL3 45 minutes prior to LPS
smiles,measurement,setting,value
C=CC1(C)CCC=C2C1CCC1C(C)(C(=O)N3CCOCC3)CCCC21C (stereo not shown) [LT-1-85],Percent TNF-α Inhibition,[1]; 100 ng/ml,10%
same,Percent TNF-α Inhibition,[1]; 1 ug/ml,45%
same,Percent TNF-α Inhibition,[1]; 10 ug/ml,55%
same,Cell Viability,THP-1 cells; 100 ng/ml,100
same,Cell Viability,THP-1 cells; 1 ug/ml,100
same,Cell Viability,THP-1 cells; 10 ug/ml,80*
C=CC1(C)CCC=C2C1CCC1C(C)(C(=O)[O-])CCCC21C.[K+] (stereo not shown) [TTL-1K],Percent TNF-α Inhibition,[1]; 100 ng/ml,10%
same,Percent TNF-α Inhibition,[1]; 1 ug/ml,50%
C=CC1(C)CCC=C2C1CCC1C(C)(C(=O)N(CCO)CCO)CCCC21C (stereo not shown) [LT-1-78],Percent TNF-α Inhibition,[1]; 100 ng/ml,0%
same,Percent TNF-α Inhibition,[1]; 1 ug/ml,0%
same,Percent TNF-α Inhibition,[1]; 10 ug/ml,20%
same,Cell Viability,THP-1 cells; 100 ng/ml,100
same,Cell Viability,THP-1 cells; 1 ug/ml,100
same,Cell Viability,THP-1 cells; 10 ug/ml,100
C=CC1(C)CCC=C2C1CCC1C(C)(C(=O)NCCN)CCCC21C (stereo not shown) [LT-1-74],Percent TNF-α Inhibition,[1]; 100 ng/ml,25%
same,Percent TNF-α Inhibition,[1]; 1 ug/ml,30%
same,Cell Viability,THP-1 cells; 100 ng/ml,100
same,Cell Viability,THP-1 cells; 1 ug/ml,100
"C=C[C@@]1(C)CC=C2[C@@H](CC[C@@H]3[C@](C)(C(=O)O)CCC[C@@]23C)C1 [Formula (I), acanthoic acid]",inhibition of IL-6 synthesis,IL-6 synthesis,neither analog TTL1 nor TTL3 significantly inhibited IL-6 synthesis
same,inhibition of the IL-1 production,IL-1 production,approximately 90%
same,cirrotic liver cells (histologic analysis),cirrhosis,remarkable recovery of the cirrotic liver cells
same,production of IL-6,IL-6,not affected
same,production of IFN-γ,IFN-γ (interferon-gamma),not affected
same,fibrotic granulomas (histologic analysis),silicosis,substantial reduction of fibrotic granulomas
same,toxicity,mice,minimal toxicity
same,toxicity,mice; listed as 1,very little toxicity
same,LD,mice; orally,> 300 mg/100 g of body weight
same,minimum lethal dose (MLD),"rat; rat, in vivo",1000 mg/kg
same,toxicity,rat; rats,minimal toxicity
same,inhibition of the TNF-α production,TNF-α production,approximately 90%
C=CC1(C)CCC=C2C1CCC1C(C)(C(=O)OC)CCCC21C (stereo not shown) [TTL3],Percent TNF-α Inhibition,[1]; 100 ng/ml,30%
same,Percent TNF-α Inhibition,[1]; 1 ug/ml,55%
same,Percent TNF-α Inhibition,[1]; 10 ug/ml,70%
same,inhibition of IL-6 synthesis,IL-6 synthesis,neither analog TTL1 nor TTL3 significantly inhibited IL-6 synthesis
same,IL-1α,IL-1 synthesis; TTL3 0.001 μg/ml,200 pg/mL
same,IL-1α,IL-1 synthesis; TTL3 0.01 μg/ml,220 pg/mL
same,IL-1α,IL-1 synthesis; TTL3 0.1 μg/ml,190 pg/mL
same,IL-1α,IL-1 synthesis; TTL3 1 μg/ml,180 pg/mL
same,IL-1α,IL-1 synthesis; TTL3 10 μg/ml,170 pg/mL
same,times greater activity than TTL1 (inhibiting IL-1 synthesis),IL-1 synthesis; stimulus not given,approximately 100 times
same,TNF-α,"TNF-α synthesis [2]; Table 5, TTL3 0.001 μg/ml",80 ng/mL
same,TNF-α,"TNF-α synthesis [2]; Table 5, TTL3 0.01 μg/ml",75 ng/mL
same,TNF-α,"TNF-α synthesis [2]; Table 5, TTL3 0.1 μg/ml",85 ng/mL
same,TNF-α,"TNF-α synthesis [2]; Table 5, TTL3 1 μg/ml",60 ng/mL
same,TNF-α,"TNF-α synthesis [2]; Table 5, TTL3 10 μg/ml",80 ng/mL
same,Cell Viability,THP-1 cells; 100 ng/ml,100
same,Cell Viability,THP-1 cells; 1 ug/ml,100
same,Cell Viability,THP-1 cells; 10 ug/ml,100
same,TNF-α,TNF-α synthesis [3]; LPS (1 μg/ml) + TTL3 1.0 μg/ml,13 ng/mL
same,TNF-α,TNF-α synthesis [3]; LPS (1 μg/ml) + TTL3 1 × 10^2 μg/ml,4 ng/mL
same,TNF-α,TNF-α synthesis [3]; LPS (1 μg/ml) + TTL3 1 × 10^−4 μg/ml,15 ng/mL
same,TNF-α,TNF-α synthesis [3]; LPS (1 μg/ml) + TTL3 1 × 10^−5 μg/ml,10 ng/mL
same,TNF-α,TNF-α synthesis [3]; LPS (1 μg/ml) + TTL3 1 × 10^−6 μg/ml,18 ng/mL
same,TNF-α,TNF-α synthesis [3]; LPS (1 μg/ml) + TTL3 1 × 10^−7 μg/ml,41 ng/mL
same,times greater activity than TTL1 (inhibiting TNF-α synthesis),TNF-α synthesis [3]; stimulus not given,approximately 100 times
same,Mortality 24 hours,"LPS/D-Gal administration; LPS/D-Gal alone 10/10, + DMSO 8/10",2/10
same,Mortality 48 hours,"LPS/D-Gal administration; LPS/D-Gal alone 10/10, + DMSO 9/10",2/10
C=CC1(C)CCC=C2C1CCC1C(C)(CCNCCN)CCCC21C (racemic) [CC-3-15 ra],Percent TNF-α Inhibition,[1]; 1 ug/ml,25%
same,Percent TNF-α Inhibition,[1]; 10 ug/ml,65%
same,Cell Viability,THP-1 cells; 1 ug/ml,100
same,Cell Viability,THP-1 cells; 10 ug/ml,100
